Data reported in patent US4578395A, “Certain aralkylaminoalkyl esters of 1,4 dihydropyridines as antihypertensive” (Teijin Limited, priority 1983, dated 1986).
Where a name gives a salt, the structure may show the parent alone.

How the values were obtained:
platelet aggregation = assay: In vitro inhibitory activity of platelet aggregation; type: cell-based, male Hartley guinea pigs; settings: AA 75 μM; for inhibition at 100 µM: Cavia porcellus, Platelet, Conc. 100 μM
Experimental: The in vitro platelet aggregation inhibiting activities of the compounds of the invention were examined by using guinea pigs. Blood was withdrawn by cardiac puncture from male Hartley guinea pigs weighing […]. A mixture of a 3.8% trisodium citrate solution and the blood in a ratio of 1:9 was centrifuged at a speed of 800 rpm for 10 minutes. The upper layer was separated as platelet-rich plasma (PRP). The lower layer was further centrifuged at a separated as platelet-poor plasma (PPP). The number of platelets was adjusted to 5×10^5 /μl to 6×10^5 /μl by filuting the PRP with PPP. 25 microliters of the test compounds prepared as shown below was added in an amount of 25 microliters of PRP after the adjustment, and the mixture was pre-incubated at 37° C. for 2 minutes, and then 75 μM (final) of AA was added. By using an aggregometer (37° C., 1,100 rpm), changes in transmission were recorded.
The test compound was dissolved in ethanol to a concentration of 10 mg/ml. When its activity was measured, it was used after being diluted with phosphate buffer (pH 7.4). Furthermore, after dilution with the buffer, the test compound was left to stand at 0° C. for 4 hours, and the activity of the test compound was similarly measured.
The rate of inhibition of platelet aggregation was determined from the following equation. [formula]

[1] = system: SHR (Spontaneously Hypertensive Rats); assay: Antihypertensive activity in SHR; type: in vivo, Male SHR (Spontaneously Hypertensive Rats); settings: no anesthesia
Experimental: Male SHR (14 to 16 weeks old) fasted for more than 16 hours were used. […] When one hour or more passed after the rats woke up out of the ether, they were administered the test compound orally. The blood pressure was measured with the pressure transducer via the catheter inserted into the femoral artery.
The test compound was dissolved in a small quantity of ethanol and diluted with water to be adjusted for administration.
Changes in the mean blood pressure were obtained from the equation mentioned below. The Basic and Clinical Study, vol. 14, p. 4495 (1980) is a useful literature to be referred to for making this kind of experiment. [formula]

mean blood pressure = assay: Action on mean blood pressure in anesthetized dog; type: in vivo, male beagle dog; settings: 10 μg/kg i.v.
Experimental: (§1) A male beagle dog weighing about 10 kg was anesthetized with sodium pentobarbital (35 mg/kg i.v.). The test compound was dissolved in a small quantity of ethanol, diluted with an isotonic sodium chloride solution, and was injected into the right femoral vein.
The mean blood pressure (MBP) was measured with the pressure transwer via the cannula inserted into the right femoral artery of the male beagle dog. The changes in the blood pressure after the administration of the test compound are shown in percentages in Table 5.

myocardium = assay: Action on myocardium (Max dLVP/dt) in anesthetized dog; type: in vivo, male beagle dog; settings: 10 μg/kg i.v.
Experimental: as §1
The left ventricular pressure (LVP) was measured with the pressure transducer via the cannula which was inserted from the left common carotid artery into the left ventricle and the recorded pressure was differentiated to calculate the max (dLVP/db), thus measuring the pharmacological action of the test compound on the myocardium. […] The Basic and Clinical Study, vol. 14, 4477 (1980) is a useful literature to be consulted with for making this kind of experiment. It is apparent from Table 6 that the compound of this invention has less exciting action on the myocardium than nicardipine.

Ca^++ contraction = assay: Activity of calcium ion blocking action (thoracic aorta strips); set-up: species or system male wister rat
Experimental: Spillay cut strips of thoracic arota were obtained from male wister rat and mounted in K-depalarized solution. 30-40 min. after treatment of compound (140) hydrochloride various concentration of Ca^++ were applied and concentration-response curve of calcium ion (Ca^++) was obtained.

[2] = system: cerebral blood vessels (common carotid artery); assay: Action on cerebral blood vessels (carotic blood flow) in anesthetized dog; type: in vivo, male beagle dog; settings: 3 μg/kg i.v.
Experimental: as §1
(§2) The carotic blood flow (CBF) and the femoral blood flow (FBF) were measured with the electromagnetic blood flowmeter (MFV-1200 made by Japan Photoelectric Co., Ltd.) via probe for measuring the blood flow volume set in the right common carotid artery and the left femoral artery of the male beagle dog respectively.

conscious rats = assay: Antihypertensive activity by oral administration in conscious rats; type: in vivo, Male Wistar rats; settings: 10 mg/kg oral
Experimental: When one hour or more passed after the rats were aroused, they were administered the test compound orally.
The blood pressure in the femoral artery was recorder and changes in the mean blood pressure were obtained from the following equation. [formula]

[3] = prior art; cited from earlier work
anesthetized rats = assay: Hypotensive activity by intravenous administration in anesthetized rats (Example 23); type: in vivo, Male Wistar rats
Experimental: Male Wistar rats weighing about 250 g were used. They were anesthetized with urethane (500 mg/kg) and α-chloralose (100 mg/kg) intraperitoneal injection.
The test compound was dissolved in a small quantity of ethanol and the solution, which was then diluted with physiological saline to have a final concentration of ethanol kept at 5% or lower, was intravenously injected through a catheter inserted into the femoral vein.
The blood pressure was recorded with the pressure transducer via the catheter inserted into the common carotid artery of the rats.
Hypotensive activity of the test compound was indicated by the dose (ED20 μ/kg) required for decreasing the mean blood pressure by 20% as compared with the mean blood pressure before the administration.
To determine the duration of the hypotensive action of the test compound, half-life of hypotensive action T^1 /2) was measured.

[4] = Light stability in methanol solution; type: physicochemical; settings: light, read-out: Remaining percentage
Experimental: 1 mg of compound (156) hydrochloride was dissolved in 100 ml of methanol. The solution was placed in a transparent glass test tube, and after the test tube was tightly stoppered, it was allowed to stand by the window of the laboratory. Part of the solution was taken at regular intervals and subjected to high performance liquid chromatograph to determined the remaining quantity of compound (156) hydrochloride contained in the solution. The same experiment was conducted with nicardipine hydrochloride as the control.

[5] = system: peripheral blood vessels (femoral artery); assay: Action on peripheral blood vessels (femoral blood flow) in anesthetized dog; type: in vivo, male beagle dog; settings: 3 μg/kg i.v.
Experimental: as §1, §2

COC(=O)C1=C(C)NC(C)=C(C(=O)OCC(C)(C)CN(C)Cc2ccccc2)C1c1cc([N+](=O)[O-])ccc1F (stereo not shown) [(140) hydrochloride, 3-(N-Benzyl-N-methylamino)-2,2-dimethylpropyl methyl 2,6-dimethyl-4-(2-fluoro-5-nitrophenyl)-1,4-dihydropyridine-3,5-dicarboxylate]
inhibition at 100 µM (platelet aggregation): -1.1 ± 1.4% | Changes in MBP ([1]; 3 mg/kg oral, 30 min.): -68 ± 2 mmHg | Changes in MBP ([1]; 3 mg/kg oral, 60 min.): -69 ± 4 mmHg | Changes in MBP ([1]; 3 mg/kg oral, 90 min.): -65 ± 2 mmHg | Changes in MBP ([1]; 3 mg/kg oral, 2 hr.): -65 ± 2 mmHg | Changes in MBP ([1]; 3 mg/kg oral, 3 hr.): -65 ± 2 mmHg | Changes in MBP ([1]; 3 mg/kg oral, 5 hr.): -55 mmHg | Changes in MBP ([1]; 3 mg/kg oral, 7 hr.): -39 ± 5 mmHg | Changes in MBP (mean blood pressure; 0.5 min.): -6 ± 1% | Changes in MBP (mean blood pressure; 1 min.): -10 ± 1% | Changes in MBP (mean blood pressure; 2 min.): -15 ± 1% | Changes in MBP (mean blood pressure; 5 min.): -20 ± 2% | Changes in MBP (mean blood pressure; 10 min.): -23 ± 2% | Changes in MBP (mean blood pressure; 15 min.): -28 ± 3% | Changes in Max dLVP/dt (myocardium; 0.5 min.): 0 ± 2% | Changes in Max dLVP/dt (myocardium; 1 min.): +2 ± 2% | Changes in Max dLVP/dt (myocardium; 2 min.): +2 ± 3% | Changes in Max dLVP/dt (myocardium; 5 min.): -6 ± 3% | Changes in Max dLVP/dt (myocardium; 10 min.): +6 ± 4% | Changes in Max dLVP/dt (myocardium; 15 min.): +4 ± 4% | IC50 (Ca^++ contraction; 30-40 min after treatment, K-depolarized solution, read-out: 50% inhibited concentration to Ca^++ contraction): 0.1 nM | Changes in CBF ([2]; 0.5 min.): +7% | Changes in CBF ([2]; 1 min.): +14% | Changes in CBF ([2]; 2 min.): +17% | Changes in CBF ([2]; 5 min.): +22% | Changes in CBF ([2]; 10 min.): +22% | Changes in mean blood pressure (conscious rats; after 30 min): -36.7 mmHg | Changes in mean blood pressure (conscious rats; after 60 min): -35.4 mmHg | Changes in mean blood pressure (conscious rats; after 90 min): -36.3 mmHg | Changes in mean blood pressure (conscious rats; after 2 hr): -36.2 mmHg | Changes in mean blood pressure (conscious rats; after 3 hr): -33.8 mmHg | Changes in mean blood pressure (conscious rats; after 5 hr): -32.6 mmHg | Changes in mean blood pressure (conscious rats; after 7 hr): -31.7 mmHg

CCOC(=O)C1=C(C)NC(C)=C(C(=O)OC)C1c1cccc(Cl)c1Cl (stereo not shown) [Felodipine, 4-(2,3-dichlorophenyl)-2,6-dimethyl-1,4-dihydropyridine-3,5-dicarboxylic acid-3-methyl ester-5-ethyl ester, reference compound]
solubility in water [3]: very purely soluble in water | Changes in mean blood pressure (conscious rats; after 30 min): -34 mmHg | Changes in mean blood pressure (conscious rats; after 60 min): -27 mmHg | Changes in mean blood pressure (conscious rats; after 90 min): -24 mmHg | Changes in mean blood pressure (conscious rats; after 2 hr): -22 mmHg | Changes in mean blood pressure (conscious rats; after 3 hr): -17 mmHg | Changes in mean blood pressure (conscious rats; after 5 hr): -10 mmHg | Changes in mean blood pressure (conscious rats; after 7 hr): -5 mmHg

COC(=O)C1=C(C)NC(C)=C(C(=O)OCCN(C)Cc2ccccc2)C1c1cccc([N+](=O)[O-])c1 (stereo not drawn) [Nicardipine hydrochloride, 4-(3-nitrophenyl)-2,6-dimethyl-1,4-dihydropyridine-3,5-dicarboxylic acid-3-methyl ester-5-β-(N-benzyl-N-methylamino) ethyl hydrochloride, reference compound]
inhibitory activity of platelet aggregation (platelet aggregation; 100 μM): has inhibitory activity of platelet aggregation | inhibition at 100 µM (platelet aggregation): 35.2 ± 9.4% | Changes in MBP ([1]; 10 mg/kg oral, 30 min.): -28 ± 13 mmHg | Changes in MBP ([1]; 10 mg/kg oral, 60 min.): -29 ± 11 mmHg | Changes in MBP ([1]; 10 mg/kg oral, 90 min.): -17 ± 14 mmHg | Changes in MBP ([1]; 10 mg/kg oral, 2 hr.): -18 ± 9 mmHg | Changes in MBP ([1]; 10 mg/kg oral, 3 hr.): -12 ± 8 mmHg | Changes in MBP ([1]; 10 mg/kg oral, 5 hr.): -10 mmHg | Changes in MBP ([1]; 10 mg/kg oral, 7 hr.): -11 ± 6 mmHg | time to peak of antihypertensive action after the administration (mean blood pressure): one | Changes in MBP (mean blood pressure; 0.5 min.): -17 ± 2% | Changes in MBP (mean blood pressure; 1 min.): -18 ± 3% | Changes in MBP (mean blood pressure; 2 min.): -16 ± 3% | Changes in MBP (mean blood pressure; 5 min.): -11 ± 4% | Changes in MBP (mean blood pressure; 10 min.): -7 ± 4% | Changes in MBP (mean blood pressure; 15 min.): -8 ± 5% | ED20 (anesthetized rats; Rattus norvegicus, iv, anesthetized Wistar rats about 250 g, read-out: ED20 (dose decreasing mean blood pressure by 20%)): 0.021 mg/kg | Duration T1/2 (half-life of hypotensive action) (anesthetized rats; i.v., dose 30): 4.2 min | Changes in Max dLVP/dt (myocardium; 0.5 min.): +5 ± 3% | Changes in Max dLVP/dt (myocardium; 1 min.): +10 ± 7% | Changes in Max dLVP/dt (myocardium; 2 min.): +38 ± 23% | Changes in Max dLVP/dt (myocardium; 5 min.): +42 ± 24% | Changes in Max dLVP/dt (myocardium; 10 min.): +31 ± 18% | Changes in Max dLVP/dt (myocardium; 15 min.): +6 ± 11% | remaining at 2 h ([4]; 2 hr.): 98% | remaining at 4 h ([4]; 4 hr.): 87% | remaining at 6 h ([4]; 6 hr.): 78% | 50% inhibited concentration to Ca^++ contraction relative to compound (140) hydrochloride (Ca^++ contraction; as much as that of compound (140) hydrochloride): twice | time to peak of CBF after the administration [2]: one | Changes in CBF ([2]; 0.5 min.): +7% | Changes in CBF ([2]; 1 min.): +14% | Changes in CBF ([2]; 2 min.): +13% | Changes in CBF ([2]; 5 min.): +5% | Changes in CBF ([2]; 10 min.): +3% | time to peak of FBF after the administration [5]: 2 min | Changes in FBF ([5]; 0.5 min.): +7 ± 7% | Changes in FBF ([5]; 1 min.): +20 ± 9% | Changes in FBF ([5]; 2 min.): +24 ± 0% | Changes in FBF ([5]; 5 min.): +17 ± 10% | Changes in FBF ([5]; 10 min.): +6 ± 0% | Changes in mean blood pressure (conscious rats; after 30 min): -26.7 mmHg | Changes in mean blood pressure (conscious rats; after 60 min): -19.2 mmHg | Changes in mean blood pressure (conscious rats; after 90 min): -18.3 mmHg | Changes in mean blood pressure (conscious rats; after 2 hr): -16.3 mmHg | Changes in mean blood pressure (conscious rats; after 3 hr): -7.1 mmHg | Changes in mean blood pressure (conscious rats; after 5 hr): +1.3 mmHg | Changes in mean blood pressure (conscious rats; after 7 hr): +2.5 mmHg
